Reference: patent US20220274967A1, “BCAT MODULATION” (Icagen, LLC, priority 2019, published 2022)

Tests used:
BCAT2 = target: T1, BCAT2 (Homo sapiens, UniProt O15382); test: BCAT2 enzyme inhibition (human); assay type: biochemical
T1 sequence (O15382 28-392): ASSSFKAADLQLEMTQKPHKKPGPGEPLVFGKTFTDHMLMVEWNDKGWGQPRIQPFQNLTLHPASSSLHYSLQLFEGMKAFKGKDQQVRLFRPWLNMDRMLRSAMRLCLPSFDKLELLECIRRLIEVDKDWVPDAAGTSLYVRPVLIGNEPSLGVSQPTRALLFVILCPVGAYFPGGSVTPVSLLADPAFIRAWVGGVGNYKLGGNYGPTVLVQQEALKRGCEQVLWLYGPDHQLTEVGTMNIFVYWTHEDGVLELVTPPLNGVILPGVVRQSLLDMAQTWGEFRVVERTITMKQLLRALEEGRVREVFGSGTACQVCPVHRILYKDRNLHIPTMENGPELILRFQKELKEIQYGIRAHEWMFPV
Experimental: In further embodiments, the functional modulation of BCAT2 is assayed using a cell-free assay. In various embodiments, the cell-free assay is an enzyme-coupled fluorescent assay. For example, the disclosure contemplates use of an assay that monitors the production of L-glutamate from branch-chain amino acids and α-ketoglutarate through the coupling of hBCATm activity to two additional enzymes, L-Glutamate Oxidase (L-GOx) and Horseradish Peroxidase (HRP). Specifically, L-GOx catabolizes L-glutamate to generate α-ketoglutarate and […], the latter being utilized by HRP and leading to the formation of fluorescent resorufin from the redox-sensitive dye Amplex Red. In some embodiments, the test compound is classified as a candidate compound if a decrease in L-glutamate is measured. In further embodiments, the test compound is classified as a candidate compound if a decrease in α-ketoglutarate is measured.

BCAT1 = target: T2, BCAT1 (Homo sapiens, UniProt P54687); test: BCAT1 enzyme inhibition (human), Glutamate Glo luminescence; assay type: biochemical
T2 sequence (P54687 1-386): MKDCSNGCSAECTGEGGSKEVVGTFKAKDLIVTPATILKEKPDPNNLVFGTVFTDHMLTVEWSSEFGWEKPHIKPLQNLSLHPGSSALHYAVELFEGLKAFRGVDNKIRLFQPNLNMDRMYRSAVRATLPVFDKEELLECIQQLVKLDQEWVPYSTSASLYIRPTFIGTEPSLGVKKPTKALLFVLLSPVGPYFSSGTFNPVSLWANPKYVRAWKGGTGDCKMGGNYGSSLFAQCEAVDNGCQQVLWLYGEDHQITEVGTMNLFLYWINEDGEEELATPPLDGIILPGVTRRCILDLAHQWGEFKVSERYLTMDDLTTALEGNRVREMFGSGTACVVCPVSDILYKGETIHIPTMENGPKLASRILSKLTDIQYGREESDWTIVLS
Experimental: The BCAT1 inhibitory activity of selected compounds of the present disclosure were also evaluated. Compounds were prepared as up to 10 mM stock solutions generally using DMSO as the vehicle. 10-point dose response curves were generated using the Echo-550 (Labcyte) acoustic dispenser. Compound source plates ([…]) were made by serially diluting compound stocks to create 1 mM, 0.1 mM, and 0.01 mM solutions in DMSO into Echo certified LDV plates. The Echo then serially spotted 100% DMSO stock solutions into source dose response plates to generate a semi-log fold dilution scheme. 100% DMSO was added to the spotted dose response plates to bring the final volume to 5 μL, creating a 333× stock plate. 120 nL of the dose response stock plate was then spotted into the assay plate. 10 μL of assay buffer (50 mM Tris with 0.05% TWEEN-20) was then added to the plates resulting in a 4× working concentration in the assay plate. Final assay test concentration range was 3 μM to 0.0001 μM with a final DMSO concentration of 0.3%.
BCAT1 enzyme stock was first diluted to a 4× working concentration of 0.24 μg/mL in assay buffer (final assay concentration is 0.06 ug/ml). 10 μL of the 4×BCAT1 solution was then added to the previously prepared assay plate containing test compound or controls, and incubated at room temperature, protected from light, for either 10 or 60 minutes. After the compound incubation period, 20 μL of assay buffer plus 2× substrate is added to all wells (Final assay concentration of substrates is 300 μM L-leucine and 250 μM alpha-ketoglutaric acid). Enzyme reaction was then incubated for 10 minutes at room temperature. After the 10 minute incubation, the enzymatic reaction was halted with the addition of 5 μL of 0.6N HCl and incubated for 1 min. 5 μL of 1M Tris (pH 8.0) was then added to neutralize pH. 12.5 μL of the quenched assay volume was then transferred to a white, 384 well plate and 12.5 μL of Glutamate detection reagent was added (detection reagent prepared per Promega Glutamate Glo kit instructions). Plates were then incubated for 30 minutes at room temperature, protected from light. After glutamate detection incubation period, luminescence was read on BMG Novostar and relative light units was measured and exported for analysis.
Compound modulation of BCAT1 enzymatic activity was determined as follows. IC50 values were calculated in ActivityBase, using a 4-parameter fit equation. Data was normalized to maximum inhibition form the reference agent VS558CSA (at 10 μM). Relative light units were exported for analysis and % inhibition values for each well were calculated using the following formula: […]

GM00371 cells = test: Viability assay (Cell titer glo) in the 3-HIB assay; assay type: cell-based, human; settings: Homo sapiens, 24 h, read-out: 3HIB INHIBITION IC50 (μM) MEAN GM00371 cells Viablility Assay
Experimental: Cell Plating: Cells (Coriell Institute GM00371 cells) were plated (96-well clear bottom sterile plate; Greiner 655098) at 10,000 cells/0.1 mL in Eagle's minimum essential medium (EMEM)/15% FBS (Gibco 16000-044) with a Combi dispenser in a cell culture hood and incubated at 37° C. and 5% CO2 overnight.
Compound Dilution: Compound were prepared as 33.3× intermediate dilution in DMSO in 96 well round polystyrene plates. For 30 μM final maximum start with 30 μL of 10 mM in DMSO. 10-12 1:3 serial dilutions were prepared from left to right (20 μL+40 μL DMSO). A 10× secondary dilution was prepare in EMEM by taking 7.5 μL 33.3× and transfer to replicate 96 well round polystyrene plates and then adding 242.5 μL EMEM A 1× final dilution in EMEM was prepared by taking 50 μL 10× dilution and transferring to replicate 96 well polypropylene assay block (Costar 3956) and adding 450 μL EMEM A control was prepared for maximal compound inhibition by taking 20 μL 10 mM Reference Compound A and adding 40 μL DMSO for a concentration of 3.3 mM To 7.5 μL of the 3.3 mM Reference Compound A solution and added 242.5 μL EMEM to make a 100 μM solution. The subsequent Reference Compound A solution was diluted with EMEM to achieve a final concentration of 10 μM. The structure of Reference Compound A is:
A control was prepared for maximal compound toxicity by taking 7.5 μL Reference Compound B and 242.5 μL EMEM to make […]. 50 μL of that 100 μM Reference Compound B solution was combined with 450 μL EMEM to achieve a concentration of 30 μM. The structure of Reference Compound B is
Compound Treatment: Media was aspirated from the cells and 100 μL of D-PBS (ThermoFisher 14190144) was added and then removed. 100 μL of diluted compound was added to the cells in the place and the cells were incubated at 37° C. and 5% CO2 for 24 hours.
Viability Assay: To the cells remaining in the plate 25 μL D-PBS and 25 μL Cell titer glo reagent (Promega G7572). The plate was placed on a shaker for 2 minutes, incubated at room temperature in the dark and then read on a Clariostar microplate reader.

| IC50 (BCAT2) | IC50 (BCAT1) | Structure (SMILES) | IC50 (GM00371 cells) |
| --- | --- | --- | --- |
| > 1 µM | ≥ 1 µM | CNC(=O)c1ccc2c(c1)nc(-c1cccc(F)c1)n2C1CCCN(C(=O)Nc2ccc(Br)s2)C1 (stereo not drawn) [Compound 229] | – |
| 0.1 to 0.5 µM | ≥ 1 µM | CNC(=O)c1cc2nc(-c3ncccc3F)n([C@H]3CCC[C@@H](NC(=O)c4ccc(Br)s4)C3)c2cc1Cl [Compound 237] | – |
| < 0.1 µM | ≥ 1 µM | N#Cc1cc2nc(-c3ccccc3C#N)n(C3CCCC(NC(=O)c4ccc(Br)s4)C3)c2cn1 (stereo not drawn) [Compound 306] | – |
| 0.1 to 0.5 µM | ≥ 1 µM | O=C(N[C@@H]1CCC[C@H](n2c(-c3ccccn3)nc3cccnc32)C1)c1ccc(Br)s1 [Compound 280] | – |
| 0.5 to 1 µM | ≥ 1 µM | CNC(=O)c1cc2nc(-c3ccccn3)n([C@H]3CCC[C@@H](NC(=O)c4ccc(Cl)s4)C3)c2cc1Cl [Compound 235] | – |
| < 0.1 µM | ≥ 1 µM | CNC(=O)c1cc2nc(-c3c(F)ccc(F)c3O)n([C@H]3CCC[C@@H](NC(=O)c4ccc(C#N)s4)C3)c2cc1F [Compound 232] | – |
| > 1 µM | ≥ 1 µM | CNC(=O)c1ccc2c(c1)nc(-c1ccccn1)n2[C@H]1CCC[C@@H](NC(=O)c2sc(Cl)cc2Cl)C1 [Compound 242] | – |
| > 1 µM | ≥ 1 µM | CNC(=O)c1ccc2c(c1)nc(-c1cccc(F)c1)n2C1CCCN(C(=O)Nc2cccs2)C1 (stereo not drawn) [Compound 228] | – |
| 0.1 to 0.5 µM | ≥ 1 µM | O=C(N[C@@H]1CCC[C@H](n2c(-c3ccccn3)nc3ccncc32)C1)c1ccc(Br)s1 [Compound 294] | – |
| < 0.1 µM | ≥ 1 µM | CNC(=O)c1ccc2c(c1)nc(-c1ccccn1)n2[C@H]1CCC[C@@H](NC(=O)c2sc(Br)cc2F)C1 [Compound 241] | – |
| < 0.1 µM | 0.5 to 1 µM | CNC(=O)c1cc2nc(-c3ccccn3)n([C@H]3CCC[C@@H](NC(=O)c4ccc(Cl)s4)C3)c2cc1O [Compound 240] | – |
| < 0.1 µM | ≥ 1 µM | CNC(=O)c1cc2nc(-c3c(F)ccc(F)c3O)n([C@H]3CCC[C@@H](NC(=O)c4ccc(Cl)s4)C3)c2cc1F [Compound 231] | – |
| < 0.1 µM | – | CNC(=O)c1cc2nc(-c3ccccn3)n([C@H]3CCC[C@@H](NC(=O)c4ccc(Br)s4)C3)c2cc1OC [Compound 211] | 0.1 to 0.5 µM |
| 0.1 to 0.5 µM | ≥ 1 µM | CNC(=O)c1cc2nc(-c3ccccn3)n([C@H]3CCC[C@@H](NC(=O)c4ccc(Br)s4)C3)c2cc1Cl [Compound 238] | – |
| 0.1 to 0.5 µM | ≥ 1 µM | CNC(=O)c1ccn2c(C3CCCC(NC(=O)c4ccc(Br)s4)C3)c(-c3ccccc3)nc2c1 (stereo not drawn) [Compound 303] | – |
| > 1 µM | ≥ 1 µM | CNC(=O)c1ccc2c(c1)nc(-c1ccccn1)n2C1CCCN(C(=O)Nc2cccc(Cl)c2)C1 (stereo not drawn) [Compound 217] | – |
| < 0.1 µM | – | CNC(=O)c1cc2nc(-c3ccccc3)n([C@H]3CCC[C@@H](NC(=O)c4ccc(Br)s4)C3)c2cn1 [Compound 297] | 0.1 to 0.5 µM |

The next lines start with the compound.

| Structure (SMILES) | IC50 (BCAT2) | IC50 (BCAT1) | IC50 (GM00371 cells) |
| --- | --- | --- | --- |
| N#Cc1ccc2c(c1)nc(-c1ccccn1)n2[C@H]1CCC[C@@H](NC(=O)c2ccc(Br)s2)C1 [Compound 194] | < 0.1 µM | ≥ 1 µM | – |
| CNC(=O)c1ccc2c(c1)nc(-c1c(O)ccc(F)c1F)n2[C@H]1CCC[C@@H](NC(=O)c2ccc(Br)s2)C1 [Compound 180] | < 0.1 µM | 0.5 to 1 µM | – |
| CNC(=O)c1ccc2c(c1)nc(-c1ccccn1)n2[C@@H]1CCC[C@@H](NC(=O)c2ccc(Br)s2)C1 [Compound 101] | – | ≥ 1 µM | – |
| N#Cc1ccc2c(c1)nc(-c1ccccn1)n2[C@H]1CCC[C@@H](NC(=O)c2ccc(Cl)s2)C1 [Compound 195] | < 0.1 µM | ≥ 1 µM | – |
| CNC(=O)c1ccc2c(c1)nc(-c1ccc(O)cn1)n2[C@H]1CCC[C@@H](NC(=O)c2ccc(C#N)s2)C1 [Compound 173] | > 1 µM | ≥ 1 µM | – |
| O=C(N[C@H]1CCC[C@@H](n2c(-c3ccccn3)nc3cc(CO)ccc32)C1)c1cccs1 [Compound 118] | > 1 µM | – | ≥ 1 µM |
| CNC(=O)c1cc2nc(-c3cccc(F)c3O)n([C@H]3CCC[C@@H](NC(=O)c4ccc(Br)s4)C3)c2cc1F [Compound 209] | < 0.1 µM | – | 0.1 to 0.5 µM |
| CNC(=O)c1ccc2c(c1)nc(-c1ccccn1)n2[C@@H]1CCC[C@H](NC(=O)c2ccc(C(C)=O)s2)C1 [Compound 121] | > 1 µM | – | ≥ 1 µM |
| COC(=O)c1ccc2c(c1)nc(-c1ccccn1)n2[C@@H]1CCC[C@H](NC(=O)c2cccs2)C1 [Compound 117] | > 1 µM | – | ≥ 1 µM |
| CNC(=O)c1ccc2c(c1)nc(-c1ccccn1)n2C1CCCC(NC(=O)c2ccc(C3CC3)s2)C1 (stereo not drawn) [Compound 144] | 0.5 to 1 µM | – | ≥ 1 µM |
| CNC(=O)c1cc2nc(-c3sccc3C)n([C@H]3CCC[C@@H](NC(=O)c4ccc(Br)s4)C3)c2cc1F [Compound 210] | < 0.1 µM | – | ≥ 1 µM |
| CNC(=O)c1ccc2c(c1)nc(-c1ccccn1)n2[C@@H]1CCC[C@H](NC(=O)c2coc(Br)n2)C1 [Compound 120] | > 1 µM | – | ≥ 1 µM |
